Data from patent US12522607B2, “Substituted pyrazolo[3,4-d]pyrimidines as wee-1 inhibitors” (WIGEN BIOMEDICINE TECHNOLOGY (SHANGHAI) CO., LTD., priority 2020, dated 2026).

Assays:
[1] = test system: HT29 cells; experiment: Antiproliferative activity against HT29 cells (Cell Titer-Lumi, ATP content); format: cell-based; conditions: Homo sapiens, HT-29, 72 after compound addition, read-out: HT-29 cells Anti-proliferative activity (IC50 for the inhibition against HT-29 cell growth)
How it was run: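 3000 cells per well, allowed to adhere overnight, then exposed to a gradient dilution of compound for 72 (units as printed). Cellular ATP read by luminescence (Cell Titer-Lumi) as a growth measure; IC50 for growth inhibition calculated.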

[2] = biological target: T1, Wee-1 kinase (Homo sapiens, UniProt P30291); experiment: Inhibitory activity against Wee-1 kinase (Lanthra Screen Wee-1 kinase kit, Tracer 178); format: binding; conditions: Wee-1 kinase 5 nM, Tracer 178 50 nM, 1 h room temperature
T1 construct: purchased Invitrogen
How it was run: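 LanthaScreen binding format: Wee-1 kinase (5 nM final) with Eu-anti-GST antibody (2 nM final) and kinase Tracer 178 (50 nM final), compounds serially diluted in DMSO. 1 h at room temperature before reading. IC50 relative to DMSO control.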

T1 sequence (P30291 whole entry): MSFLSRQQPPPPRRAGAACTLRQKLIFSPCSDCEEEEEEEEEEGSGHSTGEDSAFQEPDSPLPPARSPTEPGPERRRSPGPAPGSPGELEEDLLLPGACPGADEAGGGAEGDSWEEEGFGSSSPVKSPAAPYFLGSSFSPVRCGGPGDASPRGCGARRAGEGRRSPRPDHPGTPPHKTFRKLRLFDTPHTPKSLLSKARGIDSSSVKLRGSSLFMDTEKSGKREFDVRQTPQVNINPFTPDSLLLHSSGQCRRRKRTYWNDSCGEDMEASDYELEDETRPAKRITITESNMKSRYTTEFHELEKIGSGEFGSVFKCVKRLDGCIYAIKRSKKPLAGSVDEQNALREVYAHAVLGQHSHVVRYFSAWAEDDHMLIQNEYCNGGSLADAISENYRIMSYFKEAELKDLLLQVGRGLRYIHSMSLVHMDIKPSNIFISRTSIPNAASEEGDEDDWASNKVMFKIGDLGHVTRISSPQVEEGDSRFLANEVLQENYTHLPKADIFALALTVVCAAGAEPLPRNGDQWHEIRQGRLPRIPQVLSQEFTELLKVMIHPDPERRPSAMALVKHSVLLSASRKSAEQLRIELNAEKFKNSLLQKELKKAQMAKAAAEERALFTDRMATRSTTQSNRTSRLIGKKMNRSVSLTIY

Row | Compound | IC50 [1] [nM] | IC50 [2] [nM]
1 | C=CCn1c(=O)c2cnc(Nc3cc(OC)cc(C4CCNCC4)c3)nc2n1-c1ccc(=O)n(C(C)C)n1 [Compound 212] | ≤ 1000 | ≤ 30
2 | C=CCn1c(=O)c2cnc(Nc3cc(OC)cc(C4CCN(C)CC4)c3)nc2n1-c1ccc(=O)n(C(C)C)n1 [Compound 213] | ≤ 1000 | ≤ 30
3 | C=CCn1c(=O)c2cnc(Nc3ccc(CCN(C)C)cc3)nc2n1-c1ccc(=O)n(C(C)C)n1 [Compound 214] | ≤ 1000 | ≤ 30
4 | C=CCn1c(=O)c2cnc(Nc3ccc(CCN(C)C)c(C)c3)nc2n1-c1ccc(=O)n(C(C)C)n1 [Compound 215] | ≤ 1000 | ≤ 30
5 | C=CCn1c(=O)c2cnc(Nc3ccc(OCCN(C)C)cc3)nc2n1-c1ccc(=O)n(C(C)C)n1 [Compound 216] | ≤ 1000 | ≤ 30
6 | C=CCn1c(=O)c2cnc(Nc3ccc(OCCN(C)C)c(C)c3)nc2n1-c1ccc(=O)n(C(C)C)n1 [Compound 217] | ≤ 1000 | ≤ 30
7 | C=CCn1c(=O)c2cnc(Nc3ccc4cc(N5CCN(C)CC5)ccc4c3)nc2n1-c1ccc(=O)n(C(C)C)n1 [Compound 218] | ≤ 1000 | ≤ 30
8 | C=CCn1c(=O)c2cnc(Nc3ccc4cc(N5CCN(C)CC5)cnc4c3)nc2n1-c1ccc(=O)n(C(C)C)n1 [Compound 219] | ≤ 1000 | ≤ 30
9 | C=CCn1c(=O)c2cnc(Nc3ccc4c(c3)CC(N(C)C)C4)nc2n1-c1ccc(=O)n(C(C)C)n1 (centres unmarked) [Compound 220] | ≤ 1000 | ≤ 30
10 | C=CCn1c(=O)c2cnc(Nc3ccc4c(c3)CNC4)nc2n1-c1ccc(=O)n(C(C)C)n1 [Compound 221] | 1000 to 3000 | ≤ 30
11 | C=CCn1c(=O)c2cnc(Nc3ccc4c(c3)CN(C)C4)nc2n1-c1ccc(=O)n(C(C)C)n1 [Compound 222] | ≤ 1000 | ≤ 30
12 | C=CCn1c(=O)c2cnc(Nc3ccc4c(c3)CNC4(C)C)nc2n1-c1ccc(=O)n(C(C)C)n1 [Compound 223] | ≤ 1000 | ≤ 30
13 | C=CCn1c(=O)c2cnc(Nc3ccc4c(c3)CN(C)C4(C)C)nc2n1-c1ccc(=O)n(C(C)C)n1 [Compound 224] | ≤ 1000 | ≤ 30
14 | C=CCn1c(=O)c2cnc(Nc3ccc4c(c3)CNCC4)nc2n1-c1ccc(=O)n(C(C)C)n1 [Compound 225] | ≤ 1000 | ≤ 30
15 | C=CCn1c(=O)c2cnc(Nc3ccc4c(c3)CN(C)CC4)nc2n1-c1ccc(=O)n(C(C)C)n1 [Compound 226] | ≤ 1000 | ≤ 30
16 | C=CCn1c(=O)c2cnc(Nc3ccc4c(c3)CN(C(C)C)CC4)nc2n1-c1ccc(=O)n(C(C)C)n1 [Compound 227] | ≤ 1000 | ≤ 30
17 | C=CCn1c(=O)c2cnc(Nc3ccc4c(c3)CCNC4)nc2n1-c1ccc(=O)n(C(C)C)n1 [Compound 228] | ≤ 1000 | ≤ 30
18 | C=CCn1c(=O)c2cnc(Nc3ccc4c(c3)CCN(C)C4)nc2n1-c1ccc(=O)n(C(C)C)n1 [Compound 229] | ≤ 1000 | ≤ 30
19 | C=CCn1c(=O)c2cnc(Nc3ccc4c(c3)CCN(C(C)C)C4)nc2n1-c1ccc(=O)n(C(C)C)n1 [Compound 230] | ≤ 1000 | ≤ 30
20 | C=CCn1c(=O)c2cnc(Nc3ccc4c(c3)CNCC43CC3)nc2n1-c1ccc(=O)n(C(C)C)n1 [Compound 231] | ≤ 1000 | ≤ 30
21 | C=CCn1c(=O)c2cnc(Nc3ccc4c(c3)CN(C)CC43CC3)nc2n1-c1ccc(=O)n(C(C)C)n1 [Compound 232] | ≤ 1000 | ≤ 30
22 | C=CCn1c(=O)c2cnc(Nc3ccc4c(c3)CN(C(C)C)CC43CC3)nc2n1-c1ccc(=O)n(C(C)C)n1 [Compound 233] | ≤ 1000 | ≤ 30
23 | C=CCn1c(=O)c2cnc(Nc3ccc4c(c3)C3(CC3)CNC4)nc2n1-c1ccc(=O)n(C(C)C)n1 [Compound 234] | ≤ 1000 | ≤ 30
24 | C=CCn1c(=O)c2cnc(Nc3ccc4c(c3)C3(CC3)CN(C)C4)nc2n1-c1ccc(=O)n(C(C)C)n1 [Compound 235] | ≤ 1000 | ≤ 30
25 | C=CCn1c(=O)c2cnc(Nc3ccc4c(c3)C3(CC3)CN(C(C)C)C4)nc2n1-c1ccc(=O)n(C(C)C)n1 [Compound 236] | ≤ 1000 | ≤ 30
26 | C=CCn1c(=O)c2cnc(Nc3ccc4c(c3)CNCC4(C)C)nc2n1-c1ccc(=O)n(C(C)C)n1 [Compound 237] | ≤ 1000 | ≤ 30
27 | C=CCn1c(=O)c2cnc(Nc3ccc4c(c3)CN(C)CC4(C)C)nc2n1-c1ccc(=O)n(C(C)C)n1 [Compound 238] | ≤ 1000 | ≤ 30
28 | C=CCn1c(=O)c2cnc(Nc3ccc4c(c3)CN(C(C)C)CC4(C)C)nc2n1-c1ccc(=O)n(C(C)C)n1 [Compound 239] | ≤ 1000 | ≤ 30

Row | Compound | IC50 [1] [nM] | IC50 [2] [nM]
29 | C=CCn1c(=O)c2cnc(Nc3ccc4c(c3)CNCC4(F)F)nc2n1-c1ccc(=O)n(C(C)C)n1 [Compound 240] | ≤ 1000 | ≤ 30
30 | C=CCn1c(=O)c2cnc(Nc3ccc4c(c3)CN(C)CC4(F)F)nc2n1-c1ccc(=O)n(C(C)C)n1 [Compound 241] | ≤ 1000 | ≤ 30
31 | C=CCn1c(=O)c2cnc(Nc3ccc4c(c3)CN(C(C)C)CC4(F)F)nc2n1-c1ccc(=O)n(C(C)C)n1 [Compound 242] | ≤ 1000 | ≤ 30
32 | C=CCn1c(=O)c2cnc(Nc3ccc4c(c3)C(C)(C)CNC4)nc2n1-c1ccc(=O)n(C(C)C)n1 [Compound 243] | ≤ 1000 | ≤ 30
33 | C=CCn1c(=O)c2cnc(Nc3ccc4c(c3)C(C)(C)CN(C)C4)nc2n1-c1ccc(=O)n(C(C)C)n1 [Compound 244] | ≤ 1000 | ≤ 30
34 | C=CCn1c(=O)c2cnc(Nc3ccc4c(c3)C(C)(C)CN(C(C)C)C4)nc2n1-c1ccc(=O)n(C(C)C)n1 [Compound 245] | ≤ 1000 | ≤ 30
35 | C=CCn1c(=O)c2cnc(Nc3ccc(N(C)CCN(C)C)nc3)nc2n1-c1ccc(=O)n(C(C)C)n1 [Compound 246] | ≤ 1000 | ≤ 30
36 | C=CCn1c(=O)c2cnc(Nc3ccc(N4CCN(C)CC4)nc3)nc2n1-c1ccc(=O)n(C(C)C)n1 [Compound 247] | ≤ 1000 | ≤ 30
37 | C=CCn1c(=O)c2cnc(Nc3ccc(N4CCN(C)CC4)cn3)nc2n1-c1ccc(=O)n(C(C)C)n1 [Compound 248] | ≤ 1000 | ≤ 30
38 | C=CCn1c(=O)c2cnc(Nc3cc(OC)c(N4CCN(C)CC4)cn3)nc2n1-c1ccc(=O)n(C(C)C)n1 [Compound 249] | ≤ 1000 | ≤ 30
39 | C=CCn1c(=O)c2cnc(Nc3cnn(C4CCN(C)CC4)c3)nc2n1-c1ccc(=O)n(C(C)C)n1 [Compound 250] | 1000 to 3000 | 30 to 100
40 | C=CCn1c(=O)c2cnc(Nc3cnn(C4CCN(C(C)C)CC4)c3)nc2n1-c1ccc(=O)n(C(C)C)n1 [Compound 251] | 1000 to 3000 | 30 to 100
41 | C=CCn1c(=O)c2cnc(Nc3cc(N4CCN(C)CC4)c4cc[nH]c4c3)nc2n1-c1ccc(=O)n(C(C)C)n1 [Compound 252] | ≤ 1000 | ≤ 30
42 | C=CCn1c(=O)c2cnc(Nc3cc(N4CCN(C(C)C)CC4)c4cc[nH]c4c3)nc2n1-c1ccc(=O)n(C(C)C)n1 [Compound 253] | ≤ 1000 | ≤ 30
43 | C=CCn1c(=O)c2cnc(Nc3cc(N4CCC(N(C)C)CC4)c4cc[nH]c4c3)nc2n1-c1ccc(=O)n(C(C)C)n1 [Compound 254] | ≤ 1000 | ≤ 30
44 | C=CCn1c(=O)c2cnc(Nc3cc(N4CCN(C)CC4)c4ccn(C)c4c3)nc2n1-c1ccc(=O)n(C(C)C)n1 [Compound 255] | ≤ 1000 | ≤ 30
45 | C=CCn1c(=O)c2cnc(Nc3cc(N4CCN(C(C)C)CC4)c4ccn(C)c4c3)nc2n1-c1ccc(=O)n(C(C)C)n1 [Compound 256] | ≤ 1000 | ≤ 30
46 | C=CCn1c(=O)c2cnc(Nc3cc(N4CCC(N(C)C)CC4)c4ccn(C)c4c3)nc2n1-c1ccc(=O)n(C(C)C)n1 [Compound 257] | ≤ 1000 | ≤ 30
47 | C=CCn1c(=O)c2cnc(Nc3cc(N4CCN(C)CC4)c4ccn(C5CC5)c4c3)nc2n1-c1ccc(=O)n(C(C)C)n1 [Compound 258] | ≤ 1000 | ≤ 30
48 | C=CCn1c(=O)c2cnc(Nc3cc(N4CCN(C(C)C)CC4)c4ccn(C5CC5)c4c3)nc2n1-c1ccc(=O)n(C(C)C)n1 [Compound 259] | ≤ 1000 | ≤ 30
49 | C=CCn1c(=O)c2cnc(Nc3cc(N4CCC(N(C)C)CC4)c4ccn(C5CC5)c4c3)nc2n1-c1ccc(=O)n(C(C)C)n1 [Compound 260] | ≤ 1000 | ≤ 30
50 | C=CCn1c(=O)c2cnc(Nc3ccc4c(N5CCN(C)CC5)c[nH]c4c3)nc2n1-c1ccc(=O)n(C(C)C)n1 [Compound 261] | ≤ 1000 | ≤ 30
51 | C=CCn1c(=O)c2cnc(Nc3ccc4c(N5CCN(C(C)C)CC5)c[nH]c4c3)nc2n1-c1ccc(=O)n(C(C)C)n1 [Compound 262] | ≤ 1000 | ≤ 30
52 | C=CCn1c(=O)c2cnc(Nc3ccc4c(N5CCC(N(C)C)CC5)c[nH]c4c3)nc2n1-c1ccc(=O)n(C(C)C)n1 [Compound 263] | ≤ 1000 | ≤ 30
53 | C=CCn1c(=O)c2cnc(Nc3ccc4c(N5CCN(C)CC5)cn(C)c4c3)nc2n1-c1ccc(=O)n(C(C)C)n1 [Compound 264] | ≤ 1000 | ≤ 30
54 | C=CCn1c(=O)c2cnc(Nc3ccc4c(N5CCN(C(C)C)CC5)cn(C)c4c3)nc2n1-c1ccc(=O)n(C(C)C)n1 [Compound 265] | ≤ 1000 | ≤ 30
55 | C=CCn1c(=O)c2cnc(Nc3ccc4c(N5CCC(N(C)C)CC5)cn(C)c4c3)nc2n1-c1ccc(=O)n(C(C)C)n1 [Compound 266] | ≤ 1000 | ≤ 30
